In patent US8465983B1, “Detection and delivery systems utilizing supported lipid bilayers” (priority 2005, dated 2013):

Columns and labels:
[1] = Superquenching of MS-PPE by AQS, flow cytometry; conditions: 10 μM AQS, 2.5×10^5 MS-PPE in 200 μL PBS
Procedure: Bead suspensions of 2.5×10^5 PPE-coated microspheres in 200 μL PBS were analyzed using a FACScan flow cytometer (Becton-Dickinson, Sunnyvale, Calif.) with excitation at 488 nm. Fluorescence signals were acquired on the FL-1 channel (525 nm) using log amplification and analyzed with the CellQuest software.
The effect of the quencher, AQS, on the fluorescence of MS-PPE was determined by adding different concentrations of AQS and immediately reading the fluorescence by flow cytometry (FIG. 14A) or by fluorimetry (FIG. 14B). Adding AQS to the suspension of MS-PPE decreased the fluorescence emission intensity in an AQS-concentration-dependent manner (FIGS. 14A and B). The quenching of the MS-PPE as detected by both fluorimetry and flow cytometry, could be described by a conventional Stern-Volmer equation: Io/I=1+KSV[Q] where Io and I represent the fluorescence intensities in the absence and in presence of the AQS, and KSV is the Stern-Volmer quenching constant. However, the fluorimeter was not sensitive enough to detect the lower fluorescence (higher quenching) when AQS was added to MS-PPE at concentrations higher than 5 μM. The values of KSV obtained by flow cytometry and fluorimetry were 0.78×10^6 M^−1, and 0.79×10^6 M^−1, respectively. The correlation coefficient for the more sensitive flow cytometry was higher than that obtained by fluorimetry. […]

[2] = test system: DMPG lipid bilayer supported on MS-PPE; assay: Superquenching flow cytometric assay for disruption of DMPG lipid bilayer supported on MS-PPE; assay type: biochemical; conditions: 10 μM AQS, no disruptor, real-time kinetics
Procedure: Lipid bilayers were disrupted by adding TRITON X-100 detergent to the bead suspension to a final concentration of 0.25% (w/v).
Bead suspensions of 2.5×10^5 DMPG-coated MS-PPE in 200 μL of PBS were analyzed using a FACScan flow cytometer (Becton-Dickinson, Sunnyvale, Calif.) with excitation at 488 nm. Fluorescence signals were acquired on FL-1 channel (525 nm) using log amplification and analyzed with the CellQuest software. Kinetic analysis of disruption of supported lipid bilayer by melittin was performed by acquiring real-time data with continuous mixing of samples (10^6 MS-PPE in 800 μl of PBS) using a magnetic stirrer. The raw data were analyzed using IDL Query software developed by Bruce Edwards (Cancer Center, University of New Mexico, Albuquerque, N. Mex.).
Because an anionic lipid was used to form a lipid bilayer around MS-PPE, it was expected that MLT will disrupt the DMPG lipid bilayer by such a detergent-like action. This was tested by adding 10 μM AQS to DMPG-coated MS-PPE followed by treatment with one of the following: TRITON X-100 detergent, synthetic MLT (sMLT), or natural MLT (nMLT) and immediately reading the fluorescence by flow cytometry. […] These histograms resemble the ones reported previously for MS-PPE, without a lipid coating, in absence and in presence of AQS.
From FIG. 18, the association constant (corresponding to the reciprocal of the point of half saturation) for nMLT and sMLT with DMPG were 5×10^6 M^−1 and 1.7×10^6 M^−1, respectively. […] Lower concentrations of nMLT, in comparison to sMLT, were required to disrupt the DMPG lipid bilayer. This might be attributed to the fact that nMLT contains some phospholipase A2 (PLA2) as a contaminant. PLA2 has a high affinity for anionic phospholipids, with an association constant of 0.5×10^10 M^−1 (Kim et al., Anal. Chem. 250, 109-116 (1997)), which is about 3000 fold higher than that of MLT. Although PLA2 activity requires calcium, which is not present in the experimental system, it has been reported that even upon addition of EDTA to natural MLT, PLA2 maintains its activity, probably due to formation of a tight complex with calcium with PLA2 (Dempsey, C. E. Biochim. Biophys. Acta 1990, 1031, 143-161).
The kinetics of disruption of supported lipid bilayer by MLT were monitored by measuring real-time changes in fluorescence intensity by flow cytometry (FIG. 19). Suspensions of 10^6 DMPG-coated MS-PPE in 800 μL of PBS were treated with AQS at a final concentration of 10 μM, then with either sMLT, TRITON X-100 detergent, or no treatment. […] Treatment with sMLT in the absence of AQS led to an increase in normalized fluorescence (FIG. 19, trace A). This can be attributed to disruption of the lipid bilayer by sMLT, and is consistent with a reversal of the slight quenching of fluorescence caused by the formation of a DMPG lipid bilayer over MS-PPE. Addition of AQS alone to DMPG-coated MS-PPE (FIG. 19, trace C) led to a 20% reduction in fluorescence as reported earlier. Addition of TRITON X-100 detergent to DMPG-coated MS-PPE after the addition of AQS (first dip in trace E, FIG. 19) caused immediate decrease in fluorescence to ˜10% of its original value (second dip in trace E, FIG. 19). In contrast, addition of sMLT, after the addition of AQS, (FIG. 19, trace D) led to a gradual reduction of fluorescence intensity to ˜20% of the original value. Although MLT forms dimers at high concentrations (Dempsey, C. E. Biochim. Biophys. Acta 1990, 1031, 143-161), it is monomeric at the concentrations used in this study. On the other hand, TRITON X-100 detergent forms micelles at the concentration used in this study.

anionic phospholipids [3] = assay: Affinity of PLA2 for anionic phospholipids (Kim et al.); assay type: binding
anionic phospholipids [4] = conditions: Kim et al. 1997; cited from earlier work
[5] = test system: cholesterol (10%, molar ratio) containing lipid membrane on porous particles; assay: Release of dye from porous particles coated with cholesterol-containing lipid membrane by streptolysin-O; assay type: biochemical; conditions: even at low concentrations; 25° C. and 37° C.
Procedure: FIGS. 22A-B illustrate one aspect of the invention—drug and/or dye release from the present lipid-coated particles. FIG. 22A is a graph showing release of dye from porous particles (containing dye inside) where the particles are coated with a cholesterol (10%, molar ratio) containing lipid membrane. As increasing amounts of streptolysin-O are added (solid square symbols represent lower concentration than solid ovals), more dye is released. […] FIG. 22B illustrates how streptolysin-O can disrupt cholesterol-containing lipid bilayer membranes, leading to release of materials (e.g., drugs or antibiotics) enclosed within the membrane. Streptolysin-O is an anti-microbial protein that preferably binds to cholesterol and can disrupt cholesterol-containing membranes.

Compound: O=C1c2ccc(S(=O)(=O)O)cc2C(=O)c2ccc(S(=O)(=O)O)cc21 [AQS, 9,10-anthraquinone-2,6-disulfonic acid]
- reduction in fluorescence (normalized mean channel fluorescence) [1]: 90%
- reduction in fluorescence of DMPG-coated MS-PPE on addition of AQS alone [2]: 20%

Compound: PLA2: phospholipase A2, lipolytic enzyme, contaminant of natural melittin
- association constant higher than that of MLT (anionic phospholipids [3]): about 3000 fold
- association constant (anionic phospholipids [4]): 5e+09 M⁻¹

Compound: streptolysin-O: anti-microbial protein that preferably binds to cholesterol and can disrupt cholesterol-containing membranes
- release of dye compared with control without streptolysin-O [5]: greater than observed for control
